Results reported in US11891623B2, “Generation of neural stem cells from human trophoblast stem cells” (Accelerated BioSciences Corp., priority 2010, dated 2024).

Tests used:
Huh-7 cells = test: BBP-induced signaling in Huh-7 cells (RT-PCR, Western blot, immunofluorescence); assay type: cell-based, human; settings: PD98059 20 μM, 1 h pretreatment
Description: Huh-7 cells (3×10^5) were seeded into a 6-well dish and incubated for 24 h. Cells cultured serum-free medium overnight were treated with BBP (1 μM) for various time intervals. After BBP stimulation, cells were washed twice with PBS. Total RNAs were extracted by TRIzol methods (Invitrogen). RNA (2 μg) was used to synthesize cDNA by Reverse Transcription System (Promega). The c-DNAs were amplified by the specific primers. The primer pairs were designed as follows: AhR, forward 5′-TACTCTGCCGCCCAAACTGG-3′ (SEQ ID NO:49), reverse 5′-GCTCTGCAACCTCCGATTCC-3′ (SEQ ID NO:50); β-actin, forward 5′-CTC GCT GTC CAC CTT CCA-3′ (SEQ ID NO:51), reverse 5′-GCT GTC ACC TTC ACC GTTC-3′ (SEQ ID NO:52). PCR conditions were set at 95° C. for 5 min and 95° C. for 30 sec, 54° C. for 30 sec, 72° C. for 1 min followed by 72° C. for 10 min (36 cycles). The products were separated by 2% agarose gels and visualized by ethidium bromide.
Huh-7 cells (1×10^6) were seeded into 10 cm dish and cultured overnight. The culture medium was changed to serum-free medium for another night. Cells were treated with BBP (1 μM) for various time intervals. […] Cells were then washed twice with ice-cold PBS and lysed by RIPA lysis buffer (Minipore). Protein concentration was measured by BCA protein assay kit (Thermo). Equal amounts of protein (30 μg protein) were resolved by 8% SDS-PAGE, transferred onto PVDF membrane, and blocked with 5% non-fat dry milk for 1 h at room temperature. After blocking, the membrane was incubated with the primary antibodies including AhR (1:1000), Cox-2 (1:1000), Gαq/11 (1:100), Gβ (1:100), β-actin (1:5000), p44/42 MAP kinase (1:1000) or phospho-p44/42 MAP kinase (1:1000) overnight at 4° C. Cells were washed three times with PBST and then incubated with HRP conjugated secondary antibodies for 1 h at room temperature. After washing, the blot was visualized using an enhanced chemiluminescence kit (ECL) (Amersham).
Cells with or without transfection by AhR siRNA were cultured and treated with BBP (1 μM) for 5 and 15 min each. After treatment with primary and secondary antibodies for AhR and Gαq/11, cells were subjected to confocal immunofluorescence microscopy to analyze the dynamic movement in the cell compartments.

hTS cells = test: LIF dose effect on pluripotency transcription factors in hTS cells (RT-PCR, qPCR, flow cytometry); assay type: cell-based, human
Description: The differential gene expressions of Oct4, Sox2, NANOG, fgfr2, FGF4, BMP4, Cdx2, and endogenous control β-actin (ACTB) were measured in the hTS and the hTS cells treated by 500 units LIF (Chemicon, Temecula, CA) by IQ5 Real-time PCR detection system (Bio-Rad Laboratories) that using fluorescein as an internal passive reference dye for normalization of well-to-well optical variation. PCR amplifications were carried out in a total volume of 25 μl, containing 12.5 μl of 2×SYBR Green supermix (Bio-Rad), 0.5 μl of 10 μM of each primer and 0.5 μl of cDNA samples and mixed with sterile water. The reaction was initiated at 95° C., 3 minutes, followed by 60 three-step amplification cycles consisting of 30 s denaturation at 95° C., 30 s annealing at 60° C., 15 s extension at 72° C. At final dissociation stage, it was run to generate a melting curve for verification of amplification product specificity. Real-time qPCR was monitored and analyzed by the Bio-Rad IQ5 optical system software version 2.0 (Bio-Rad). Relative mRNA levels were calculated using the comparative Ct method (Bio-Rad instruction manual) and presented with ratio to biological controls. ACTB transcript levels were confirmed to correlate well with total RNA amounts and therefore used for normalization throughout. All primer pairs used were confirmed to approximately double the amount of product within one cycle and to yield a single product of the predicted size. Primer sequences of Oct4, Sox2, NANOG, fgfr2, FGF4, BMP4, Cdx2, and endogenous control β-actin (ACTB) are shown in Supplemental Data Table 3.
Cells (5×10^6 cells/ml) were incubated with a variety of primary antibodies for 30 min and then incubated with the appropriate fluorescein isothiocyanate (FITC)-, phycoerythrin (PE)- or Rho-conjugated secondary antibody (Jackson ImmunoResearch, West Grove, PA) at adjusted dilution for 1 h at 4° C. After thorough washing, cells were re-suspended in PBS (1 ml) and subjected to flow cytometry (FACScan, BD Biosciences, San Jose, CA). The data were analyzed with Cell-Quest software (BD Biosciences).
The effects of LIF withdrawal on human trophoblast stem (hTS) cells were examined since hTS cells expresses pluripotent gene markers of both embryonic stem (ES) cells and trophoblastic stem (TS) cells such as Oct4, Nanog, Sox2, and Cdx2 (FIG. 1a). hTS cells were treated with different dosages of LIF, i.e., 500 (mimic at ampulla), 250 (mimic at mid-portion), and 125 units (mimic at isthmus) for 3 days each, showing that LIF promoted Oct4 expression but represses Cdx2, Nanog, and Sox2 expressions in a dose-dependent manner (FIG. 1b). Quantitative PCR analyses supported these findings (FIG. 1c). As the relative expression ratio of Oct4 to Cdx2 enables to determine cell fate in early embryonic differentiation (Niwa et al., 2000), the Oct4/Cdx2 ratio ([…]) appeared to be the highest at the ampulla which decreased to 0.2-fold at mid-portion and became near one at isthmic portion (FIG. 1d). This decreasing trend of Oct4/Cdx2 ratio actually facilitates the differentiation towards trophectoderm fate (Niwa et al., 2005). […] This role of rescuer was further supported by the prominently high Nanog/Oct4 ratio of LIF with 125 units compared to the ratio of LIF with 500 units and the apparent increase of Cdx2/Oct4 ratio at LIF with 125 units (FIG. 1e) No apparent change of Sox2/Cdx2 was found.

6-OHDA-induced PD rats = test: Immunofluorescence tissue analysis of regeneration of the dopaminergic nigrostriatal pathway; assay type: in vivo
Description: To obtain the brain sections, rats were anesthetized by sodium pentobarbitone (60 mg/kg i.p., Apoteksbolaget, Sweden) and trans-cardially perfused with saline (50 ml, 0.9% w/v) followed by ice-cold paraformaldehyde (200 ml, 10% w/v in 0.02 M PBS) were performed at 18- and 12-week in the acute and chronic PD rats, respectively. Brain sections were subjected for immunocytochemistry, immunohistochemistry, and immunofluorescence tissue analysis as indicated.
To further verify the regeneration of the dopaminergic nigrostriatal pathway after cell therapy, immunofluorescence tissue analysis was performed (TissueGnostics Gmbh, Vienna, Austria). Brain sections were investigated, including 14 acute PD rats (i.e., 2 at 1-week and 2 at 6-week post-injury and 2 controls, 6 at 12-weeks after cell transplantation and 2 controls) and 4 chronic PD rats (i.e., 2 at 12-week after cell therapy and 2 controls). In the SNC, 6-OHDA caused progressive neural degeneration, resulting in various sizes of cavity at 6 weeks post-injury (FIG. 31).

With `COc1cccc(-c2cc(=O)c3ccccc3o2)c1N` [PD98059] the “BBP-induced ERK phosphorylation and COX-2 activation” value (Huh-7 cells) was “blocked”.
With leukemia inhibitory factor [LIF] the Oct4/Cdx2 ratio (hTS cells; LIF 125 units (mimic at isthmus), 3 days) was “one”, the Nanog/Cdx2 ratio (hTS cells; LIF 125 units, 3 days) was 2 fold and the Oct4/Cdx2 ratio (hTS cells; LIF 250 units (mimic at mid-portion), 3 days) was 0.2 fold. The Oct4 expression (hTS cells; LIF 500, 250, 125 units, 3 days) was “promoted”, the “Cdx2, Nanog, and Sox2 expressions” value (hTS cells; LIF 500, 250, 125 units, 3 days, dose-dependent) was “represses” and the Oct4/Cdx2 ratio (hTS cells; LIF 500 units (mimic at ampulla), 3 days) was 0.4 fold. The Nanog/Cdx2 ratio (hTS cells; LIF 500 units, 3 days) was 0.1 fold, the Nanog expression (hTS cells; LIF-induced cells, isthmus level (125 U/ml), flow cytometry) was 62.5% and the “RA-induced Nanog expression” value (hTS cells; hTS cells preincubated with RA (10 μM) overnight, then LIF 125, 250, 500 U/ml 1 day, flow cytometry) was “suppresses”.
For `NCCc1cc(O)c(O)cc1O` [6-OHDA, 6-hydroxydopamine], the “DA (TH+) neurons in SNC compared to intact side” value (6-OHDA-induced PD rats; 1-week post-injury) was 48%, the “DA (TH+) neurons in striatum compared to intact side” value (6-OHDA-induced PD rats; 1-week post-injury) was 78% and the “DA (TH+) neurons in SNC compared to intact side” value (6-OHDA-induced PD rats; 6-week post-injury) was 13%. For the same compound, the “DA (TH+) neurons in striatum compared to intact side” value (6-OHDA-induced PD rats; 6-week post-injury) was 4% and the “GFAP(+) cells in lesioned striatum compared to intact side” value (6-OHDA-induced PD rats; 6 weeks post-injury) was 65.5%.
